Results from PubChem BioAssay AID330 (DTP/NCI, 2004).
“And” between values parts separate entries of the source, which are not always exact repeats. Equal values may be shown once. Inconclusive results and toxic doses are left out.

Test system: P388 leukemia ip, CD2F1 mice, survival T/C
Test: NCI In Vivo Anticancer Drug Screen. Data for tumor model P388 Leukemia (intraperitoneal) in CD2F1 (CDF1) mice
Details: endpoint: median survival time, higher = longer survival
Summary of the method: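 Mice carrying the transplanted tumor received test compound or vehicle. Survival was recorded in each group, and the value is the treated-group measurement divided by that of the vehicle-treated control group.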

[1] = dose: 50.0 mg/kg/injection, schedule: Q01DX009 (ip), vehicle: Klucel (hydroxypropylcellulose) (HPC)
[2] = dose: 100.0 mg/kg/injection, schedule: Q01DX009 (ip), vehicle: Klucel (hydroxypropylcellulose) (HPC)
[3] = dose: 200.0 mg/kg/injection, schedule: Q01DX009 (ip), vehicle: Klucel (hydroxypropylcellulose) (HPC)
[4] = dose: 100.0 mg/kg/injection, schedule: Q04DX003 (ip), vehicle: saline
[5] = dose: 200.0 mg/kg/injection, schedule: Q04DX003 (ip), vehicle: saline
[6] = dose: 400.0 mg/kg/injection, schedule: Q04DX003 (ip), vehicle: saline
[7] = dose: 50.0 mg/kg/injection, schedule: Q01DX005 (ip), vehicle: Klucel (hydroxypropylcellulose) (HPC)
[8] = dose: 100.0 mg/kg/injection, schedule: Q01DX005 (ip), vehicle: Klucel (hydroxypropylcellulose) (HPC)
[9] = dose: 200.0 mg/kg/injection, schedule: Q01DX005 (ip), vehicle: Klucel (hydroxypropylcellulose) (HPC)

C[C@]12CC[C@H](OC(=O)COc3ccc(N(CCCl)CCCl)cc3)C[C@@H]1CC[C@@H]1[C@@H]2CC[C@]2(C)NC(=O)CC[C@@H]12
T/C (dose: 2.0 mg/kg/injection, schedule: Q01DX009 (ip), vehicle: saline with Tween-80): 120 % of control | T/C (dose: 8.0 mg/kg/injection, schedule: Q01DX009 (ip), vehicle: saline with Tween-80): 151 % of control and 157 % of control and 192 % of control | T/C (dose: 16.0 mg/kg/injection, schedule: Q01DX009 (ip), vehicle: saline with Tween-80): 180 % of control and 184 % of control and 192 % of control | T/C (dose: 32.0 mg/kg/injection, schedule: Q01DX009 (ip), vehicle: saline with Tween-80): 107 % of control and 180 % of control and 217 % of control

Cc1ccc(Cl)cc1NS(=O)(=O)c1ccc2ccccc2c1
T/C (dose: 100.0 mg/kg/injection, schedule: Q04DX003 (ip), vehicle: saline with Tween-80): 100 % of control | T/C (dose: 200.0 mg/kg/injection, schedule: Q04DX003 (ip), vehicle: saline with Tween-80): 109 % of control | T/C (dose: 400.0 mg/kg/injection, schedule: Q04DX003 (ip), vehicle: saline with Tween-80): 104 % of control

C=Cn1c([N+](=O)[O-])cnc1/C=C/c1ccc(C(=O)OCCN(CC)CC)cc1
T/C (dose: 100.0 mg/kg/injection, schedule: Q04DX002 (ip), vehicle: Klucel (hydroxypropylcellulose) (HPC)): 99 % of control | T/C (dose: 200.0 mg/kg/injection, schedule: Q04DX002 (ip), vehicle: Klucel (hydroxypropylcellulose) (HPC)): 103 % of control

N#C/C(=C/c1ccco1)c1ccc(Cl)cc1
T/C [1]: 90 % of control | T/C [2]: 95 % of control | T/C [3]: 92 % of control

CC12CC(=O)NC(=O)N1CCS2 (centres undefined)
T/C [1]: 106 % of control | T/C [2]: 100 % of control | T/C [3]: 92 % of control

COc1ccccc1N/N=c1\c2nc3ccccc3nc1n(-c1ccccc1C)c(=S)n2-c1ccc(Cl)cc1
T/C (dose: 50.0 mg/kg/injection, schedule: Q01DX005 (ip), vehicle: saline with Tween-80): 88 % of control | T/C (dose: 100.0 mg/kg/injection, schedule: Q01DX005 (ip), vehicle: saline with Tween-80): 94 % of control | T/C (dose: 200.0 mg/kg/injection, schedule: Q01DX005 (ip), vehicle: saline with Tween-80): 103 % of control

CCCSCCC(C)(N)C(=O)O (centres undefined)
T/C (dose: 25.0 mg/kg/injection, schedule: Q01DX009 (ip), vehicle: Klucel (hydroxypropylcellulose) (HPC)): 98 % of control | T/C [1]: 91 % of control | T/C [2]: 107 % of control | T/C [3]: 96 % of control

COc1cc(NC(=O)SC2=NCCS2)cc(OC)c1
T/C (dose: 50.0 mg/kg/injection, schedule: Q01DX009 (ip), vehicle: saline with Tween-80): 107 % of control | T/C (dose: 100.0 mg/kg/injection, schedule: Q01DX009 (ip), vehicle: saline with Tween-80): 110 % of control | T/C (dose: 200.0 mg/kg/injection, schedule: Q01DX009 (ip), vehicle: saline with Tween-80): 100 % of control

COc1ccc(-c2cc3ccccc3c(=O)n2Cc2ccccc2)cc1
T/C (dose: 60.0 mg/kg/injection, schedule: Q01DX005 (ip), vehicle: saline with Tween-80): 100 % of control | T/C (dose: 120.0 mg/kg/injection, schedule: Q01DX005 (ip), vehicle: saline with Tween-80): 103 % of control | T/C (dose: 240.0 mg/kg/injection, schedule: Q01DX005 (ip), vehicle: saline with Tween-80): 94 % of control

C[CH2][Sn]([CH2]C)([N]=C=S)[N]=C=S.c1ccc2nc(-c3ccc4ccccc4n3)ccc2c1
T/C (dose: 60.0 mg/kg/injection, schedule: Q01DX005 (ip), vehicle: Klucel (hydroxypropylcellulose) (HPC)): 95 % of control | T/C (dose: 120.0 mg/kg/injection, schedule: Q01DX005 (ip), vehicle: Klucel (hydroxypropylcellulose) (HPC)): 96 % of control | T/C (dose: 240.0 mg/kg/injection, schedule: Q01DX005 (ip), vehicle: Klucel (hydroxypropylcellulose) (HPC)): 98 % of control

O.O.O=C(O)C(=O)O.O=C(O)C(=O)O.[Rh]
T/C (dose: 25.0 mg/kg/injection, schedule: Q04DX003 (ip), vehicle: water): 94 % of control | T/C (dose: 50.0 mg/kg/injection, schedule: Q04DX003 (ip), vehicle: water): 95 % of control | T/C (dose: 100.0 mg/kg/injection, schedule: Q04DX003 (ip), vehicle: water): 100 % of control | T/C (dose: 200.0 mg/kg/injection, schedule: Q04DX003 (ip), vehicle: water): 100 % of control

CCSC(=O)OCC(C)([N+](=O)[O-])[N+](=O)[O-]
T/C [4]: 94 % of control | T/C [5]: 94 % of control | T/C [6]: 100 % of control

OC(Cc1cnc2ccccc2c1)(c1ccccc1)c1ccccc1
T/C (dose: 50.0 mg/kg/injection, schedule: Q04DX002 (ip), vehicle: saline with Tween-80): 111 % of control | T/C (dose: 100.0 mg/kg/injection, schedule: Q04DX002 (ip), vehicle: saline with Tween-80): 96 % of control | T/C (dose: 200.0 mg/kg/injection, schedule: Q04DX002 (ip), vehicle: saline with Tween-80): 88 % of control

OCC1OC(n2cnc3cncnc32)C(O)C1O (centres undefined)
T/C (dose: 6.25 mg/kg/injection, schedule: Q01DX001 (ip), vehicle: saline): 111 % of control | T/C (dose: 6.25 mg/kg/injection, schedule: Q04DX003 (ip), vehicle: saline): 99 % of control | T/C (dose: 12.5 mg/kg/injection, schedule: Q01DX001 (ip), vehicle: saline): 111 % of control | T/C (dose: 12.5 mg/kg/injection, schedule: Q04DX003 (ip), vehicle: saline): 100 % of control | T/C (dose: 25.0 mg/kg/injection, schedule: Q01DX001 (ip), vehicle: saline): 114 % of control | T/C (dose: 25.0 mg/kg/injection, schedule: Q04DX003 (ip), vehicle: saline): 99 % of control | T/C (dose: 50.0 mg/kg/injection, schedule: Q04DX003 (ip), vehicle: saline): 96 % of control and 97 % of control | T/C [4]: 100 % of control | T/C [5]: 104 % of control | T/C [6]: 104 % of control

CSC(C(=O)c1ccccc1)c1ccccc1 (centres undefined)
T/C (dose: 25.0 mg/kg/injection, schedule: Q01DX009 (ip), vehicle: saline + alcohol): 87 % of control | T/C (dose: 50.0 mg/kg/injection, schedule: Q01DX009 (ip), vehicle: saline + alcohol): 96 % of control | T/C (dose: 100.0 mg/kg/injection, schedule: Q01DX009 (ip), vehicle: saline + alcohol): 112 % of control

CCC/C(=N\O)S(=O)(=O)c1ccc(NN=O)nc1
T/C (dose: 3.12 mg/kg/injection, schedule: Q01DX009 (ip), vehicle: saline): 107 % of control | T/C (dose: 6.25 mg/kg/injection, schedule: Q01DX009 (ip), vehicle: saline): 108 % of control and 110 % of control | T/C (dose: 12.5 mg/kg/injection, schedule: Q01DX009 (ip), vehicle: saline): 116 % of control and 118 % of control | T/C (dose: 25.0 mg/kg/injection, schedule: Q01DX009 (ip), vehicle: saline): 150 % of control

O=c1cc(N2CCOCC2)n2ccccc2n1
T/C (dose: 60.0 mg/kg/injection, schedule: Q01DX005 (ip), vehicle: saline): 96 % of control | T/C (dose: 120.0 mg/kg/injection, schedule: Q01DX005 (ip), vehicle: saline): 102 % of control | T/C (dose: 240.0 mg/kg/injection, schedule: Q01DX005 (ip), vehicle: saline): 96 % of control

C=C1C(=O)OC2C1CCC(C)=C1CCC(C)(O)C12 (centres undefined)
T/C (dose: 5.0 mg/kg/injection, schedule: Q01DX009 (ip), vehicle: saline with Tween-80): 97 % of control | T/C (dose: 10.0 mg/kg/injection, schedule: Q01DX009 (ip), vehicle: saline with Tween-80): 105 % of control | T/C (dose: 20.0 mg/kg/injection, schedule: Q01DX009 (ip), vehicle: saline with Tween-80): 107 % of control | T/C (dose: 40.0 mg/kg/injection, schedule: Q01DX009 (ip), vehicle: saline with Tween-80): 107 % of control

O=C1c2ccccc2C2(O)C3c4ccccc4CCN3CN12 (centres undefined)
T/C [7]: 100 % of control | T/C [8]: 101 % of control | T/C [9]: 101 % of control

NCC(=O)NC(CSC(c1ccccc1)c1ccccc1)C(=O)NCC(=O)O (centres undefined)
T/C [7]: 102 % of control | T/C [8]: 103 % of control | T/C [9]: 96 % of control

NC(=O)c1ccccc1Sc1ccccc1C(N)=O
T/C (dose: 100.0 mg/kg/injection, schedule: Q01DX001 (ip), vehicle: saline with Tween-80): 100 % of control | T/C (dose: 200.0 mg/kg/injection, schedule: Q01DX001 (ip), vehicle: saline with Tween-80): 100 % of control | T/C (dose: 400.0 mg/kg/injection, schedule: Q01DX001 (ip), vehicle: saline with Tween-80): 100 % of control

CC(NNC(=S)N1CCC(c2ccccc2)CC1)c1ccc2ccccc2n1 (centres undefined)
T/C [7]: 97 % of control | T/C [8]: 105 % of control

CCCCCCCCCCCCCCCC(=O)NCC(=O)NC1CC(OC2CC(O)(C(C)=O)Cc3c(O)c4c(c(O)c32)C(=O)c2c(OC)cccc2C4=O)OC(C)C1O (centres undefined)
T/C (dose: 0.75 mg/kg/injection, schedule: Q01DX009 (ip), vehicle: other): 100 % of control | T/C (dose: 1.5 mg/kg/injection, schedule: Q01DX009 (ip), vehicle: other): 103 % of control | T/C (dose: 3.0 mg/kg/injection, schedule: Q01DX009 (ip), vehicle: other): 118 % of control
